Experimental data taken from PubChem BioAssay AID504726 (Broad Institute, 2011).
The source made the active and inactive calls.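 How the source made its calls: active means fitted half-maximal concentration for a cytotoxic signal drop no higher than ten times the top valid dose tested; inconclusive means flat curve between -70 and -30 percent, or an unreliable fit; inactive means flat within 30 percent, signal rise, or potency beyond limit.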

Assay: viability loss in HeLa cells – cell-based, 24 h, cherry-picked samples, cytotoxicity control, dose response (AID 504726);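 further: 0% = DMSO neutral controls and -100% = mitoxantrone positive controls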
Details: HeLa viability, CellTiter-Glo ATP luminescence, 24 h; at 35 µM (top of the series)

Structure (SMILES)	activity change, negative = cytotoxicity
O=C(OCCN1C(=O)c2cccc3c(N4CCOCC4)ccc(c23)C1=O)c1ccc(Cl)cc1	-11.7% (inactive)
Cc1ccc(C(=O)CCC(=O)Nc2ncccc2C)cc1	-3.79% (inactive)
O=c1cc(-c2ccc(O)c(O)c2)oc2cc(O[C@@H]3O[C@H](CO)[C@@H](O)[C@H](O)[C@H]3O)cc(O)c12	-8.55% (inactive)
Cc1cc(=O)oc2cc(OCC(=O)N3CCN(Cc4ccc5c(c4)OCO5)CC3)ccc12	-5.71% (inactive)
Nc1cccc2c(O)cc(S(=O)(=O)O)cc12	-1.83% (inactive)
O=c1cc2c(=O)oc3cc(O)c(O)oc3c2c(O)c1O	-7.01% (inactive)
CCN(Cc1ccccc1)C(=O)c1cccc(S(=O)(=O)N2CCN(Cc3ccccc3)CC2)c1	1.39% (inactive)
Nc1nnc(CC(=O)N/N=C/c2cc([N+](=O)[O-])cc(Br)c2O)s1	-8.04% (inactive)
COc1ccc(Cn2nnc3c(=O)[nH]c(C4CCCN(C(=O)c5ccccc5)C4)nc32)cc1 (stereo not given)	-5.25% (inactive)
COc1ccc(-c2n[nH]c(=S)n2-c2ccc(C)cc2)cc1	4.29% (inactive)
Cc1ccc(S(=O)(=O)/N=C/c2ccc(N(C)C)cc2)cc1	2.12% (inactive)
CC(=O)Nc1ccc(S(=O)(=O)Nc2ccccc2N2CCOCC2)cc1	1.3% (inactive)
CCC1(c2ccccc2)NC(=O)N(CC(=O)Nc2ccc(OC)nc2)C1=O (stereo not given)	-1.91% (inactive)
Cc1nc2ccccc2n2c(O)c(CC(=O)O)cc12	-13.5% (inactive)
CN(C)c1ccc(O)c2c1CC1CC3[C@@H](N(C)C)C(=O)C(C(N)=O)=C(O)[C@]3(O)C(=O)C1=C2O (stereo not given in full)	-1.73% (inactive)
CCN(C(=O)COC(=O)CNS(=O)(=O)c1ccc(SC)c([N+](=O)[O-])c1)C1CCCCC1	-5.61% (inactive)
O=C1c2cccc3c(O)ccc(c23)C(=O)N1Cc1ccco1	8.13% (inactive)
CC(=O)O[C@@H]1[C@@H](OC(C)=O)[C@H](n2ccc3cc([N+](=O)[O-])ccc32)OC[C@@H]1OC(C)=O	-3.68% (inactive)
CCc1cc[n+](-c2nc([O-])sc2C=O)cc1	0.003% (inactive)
CC(C(=O)Nc1ccccc1)N1C(=O)c2ccccc2C1=O (stereo not given)	-8.7% (inactive)

Structure (SMILES)	activity change, negative = cytotoxicity
Fc1ccc(-c2cc(C(F)(F)F)nc(-n3cc(Cl)cn3)n2)cc1	-12% (inactive)
O=C(O)c1ccc2c(c1)[C@@H]1C=CC[C@@H]1[C@H](c1ccccn1)N2	-31.8% (inactive)
COc1ccccc1N1CCN(S(=O)(=O)c2c(C)[nH]c(C)c2C(=O)N2CCCC2)CC1	3.8% (inactive)
O=C(CSc1cccc2cccnc12)N/N=C/c1ccc(O)cc1	0.069% (inactive)
Cc1oc2cc(O)ccc2c(=O)c1-c1nncn1-c1ccccc1	3.87% (inactive)
NC(=S)N/N=C/c1cn(CCC(=O)O)nc1-c1cccc(Br)c1	-7.24% (inactive)
O=c1ccc2cc3c4c(c2o1)CCCN4CCC3	-19.7% (inactive)
Cc1ccc(N(CC(=O)N2CCOCC2)S(C)(=O)=O)cc1	-3.08% (inactive)
Clc1ccc(C2=CC(c3ccco3)n3ncnc3N2)cc1 (stereo not given)	-16.1% (inactive)
O=C(NCC1CCCO1)c1cccc(S(=O)(=O)N(Cc2ccccc2)c2ccccc2)c1 (stereo not given)	-6.52% (inactive)
NC(=O)c1ccc(NC(=O)C2COc3ccccc3O2)cc1 (stereo not given)	-1.55% (inactive)
O=C(O)c1cccc(NC2=Nc3cccc4cccc2c34)c1	-4.32% (inactive)
O=c1[nH]c(=O)n(C2CCCCC2)c(O)c1C=Nc1ccc(N2CCOCC2)cc1	-11.5% (inactive)
O=C1/C(=C/c2ccco2)SC(=S)N1c1cccnc1	-6.8% (inactive)
Cc1nn(Cc2c(F)c(F)c(F)c(F)c2F)c(C)c1NC(=O)c1ccnn1C	-4.82% (inactive)
Cc1cc2nc3c(=O)[nH]c(=S)[nH]c3nc2cc1NC(=O)C(F)(F)F	-3.95% (inactive)
Cc1ccccc1C1=C/C(=C(\SS/C(C(=O)c2ccc(OCC(=O)O)c(Cl)c2Cl)=C2\C=C(c3ccccc3C)SS2)C(=O)c2ccc(OCC(=O)O)c(Cl)c2Cl)SS1	-8.33% (inactive)
CCCCN(C(=O)CSc1nnc(-c2ccc(Cl)cc2)o1)c1c(N)n(CC(C)C)c(=O)[nH]c1=O	5.27% (inactive)
CCCOc1ccc(C=Nc2ccc(OC)c(S(=O)(=O)N3CCOCC3)c2)c(O)c1	19% (inactive)
Cc1ccc(NC(=O)CN2C(=O)N/C(=C/c3cc(C)n(-c4ccc(C(=O)O)cc4)c3C)C2=O)cc1	-5.94% (inactive)

Structure (SMILES)	activity change, negative = cytotoxicity
CN1CCN(C(=S)c2ccc(N(C)C)cc2)CC1	6.8% (inactive)
Cc1cc(C)n(CC(=O)NNC(=O)CC(C)c2ccccc2)n1 (stereo not given)	-9.44% (inactive)
O=C(O)c1ccccc1NS(=O)(=O)c1ccc(N/N=C/c2ccc(O)c(O)c2)c([N+](=O)[O-])c1	-10.9% (inactive)
C=CCN1C(=O)/C(=c2\sc3nc(=O)c(Cc4ccccc4Cl)nn3c2=O)c2ccccc21	-9.87% (inactive)
COC(=O)c1cc(N2CCN(C)CC2)nc2ccccc12	-6.94% (inactive)
Nc1c(-c2ccccn2)cnn1-c1nc(-c2ccc(F)cc2)cs1	-5.27% (inactive)
CC(C)Cc1nc(SCC(=O)Nc2nnc(CC(C)C)s2)n[nH]1	-15% (inactive)
c1ccc2[nH]c3cc4ncnc4cc3nc2c1	5.9% (inactive)
NNC(=S)Nc1ccc(S(=O)(=O)N2CCOCC2)cc1	0.037% (inactive)
O=S(=O)(O)c1cc(Cl)cc(N=Nc2ccc(O)cc2O)c1O	-12.1% (inactive)
COc1cc(-c2ccc(Nc3ccccc3C(=O)O)c(OC)c2)ccc1Nc1ccccc1C(=O)O	-14.8% (inactive)
NC(=O)C1=NOC(CNc2ncc(C(F)(F)F)cc2Cl)C1 (stereo not given)	-1.63% (inactive)
CCN(CC)C(=O)c1ccc2c(c1)C1C=CCC1C(C(=O)O)N2 (stereo not given)	-7.76% (inactive)
Cc1cc(-c2nnc(SCC(=O)Nc3ccccc3)n2C)no1	-3.15% (inactive)
NC(=S)NN=Cc1ccc(-c2ccc(S(=O)(=O)Nc3ncccn3)cc2)o1	-14.8% (inactive)
CN(CC(=O)Nc1ccc(N2CCOCC2)cc1)C(=O)CSc1ccc(Br)cc1	0.641% (inactive)
O=[N+]([O-])c1cccc(CSc2nc3ccccc3[nH]2)c1	-8.29% (inactive)
CC(C(=O)O)N1C(=O)/C(=C/C=C/c2ccco2)SC1=S (stereo not given)	-13.5% (inactive)
COc1c2c(nc3occc13)C(CCC(C)(C)O)(OC)C(O)CC2 (stereo not given)	-4.6% (inactive)
N=C1/C(=C\c2ccc(Br)o2)C(=O)N=C2SC(CC(=O)N3CCOCC3)=NN12	1.98% (inactive)
